Several values for one entry are separate records, joined by “and”; a condition that tells them apart may be missing. Equal entries are not always repeated.
test system: West Nile virus Kunjin strain (KUNV); experiment: Plaque reduction assay in Vero cells after pre-incubating virus with peptide; format: cell-based; settings: 10 µM peptide, KUNV 1 × 10^5 PFU exposed in DMEM for 1 h at room temperature, then Vero cells 1 h, overlay, 3 days, mean with SD of three independent experiments
Protocol: The antiviral activity of the synthesized peptides was evaluated using plaque reduction assays in Vero cells against West Nile virus Kunjin strain (KUNV, accession number AY274504). Vero cells (Vero E6, ATCC, CRL-1586, Manassas, VA, USA) were maintained in Dulbecco’s Modified Eagle Medium (DMEM, Thermo Fisher Scientific, Gibco, Göteborg, Sweden), supplemented with 10% fetal bovine serum (FBS, Thermo Fisher Scientific, Gibco, Göteborg, Sweden) and antibiotics (PEST, Thermo Fisher Scientific, Gibco, Göteborg, Sweden). For the antiviral assays, Vero cells were seeded in 24-well plates and allowed to reach confluency. The virus suspension (1 × 10^5 PFU) was pre-incubated with the peptides at 10 µM concentration or lower (in the combination experiment) for 1 h at room temperature. The peptide–virus mixtures were then added to the Vero cell monolayers and incubated for 1 h at 37 °C. Following incubation, the inoculum was removed, and cells were overlaid with Avicel 2.4% overlay media (FMC, Philadelphia, PA, USA). Plates were incubated for 3 days at 37 °C in a CO2 incubator. Post-incubation, cells were fixed with 100% methanol and stained with 1% crystal violet to visualize and count viral plaques. The reduction in plaque numbers compared to control wells (virus without peptide) was used to quantify antiviral activity.

| Substance | KUNV (% Reduction) |
| --- | --- |
| β7-34: truncated peptide derived from PLNC8 β (YTLGIKILWSAYKHRKTIEKSFNKGFYH) | 52 ± 27% |
| SVPTSVYTLGIKILRSARKFGKVIEKSFNKGFYH [β15, modified peptide derived from PLNC8 β] | 9 ± 13% |
| FNRGGYNFGKSVRHVVDAIGSVAGIRGILKSIR [PlnE, full-length peptide E of two-peptide plantaricin EF, reference compound] | 24 ± 6% |
| β10-17: truncated peptide derived from PLNC8 β (GIKILWSA) | 0 ± 0% |
| SVPTSVYTLGQKILRSARKFGKDIEKSFNKGFYH [β14, modified peptide derived from PLNC8 β] | 6 ± 8% |
| β1-6: truncated peptide derived from PLNC8 β (SVPTSV) | 21 ± 22% |
| β28-34: truncated peptide derived from PLNC8 β (FNKGFYH) | 11 ± 15% |
| α1-15: truncated peptide derived from PLNC8 α (DLTTKLWSSWGYYLG) | 91 ± 2% |
| α1-22: truncated peptide derived from PLNC8 α (DLTTKLWSSWGYYLGKKARWNL) | 28 ± 2% |
| GAWKNFWSSLRKGFYDGEAGRAIRR [PlnJ, full-length peptide J of two-peptide plantaricin JK, reference compound] | 30 ± 8% |
| β14-34: truncated peptide derived from PLNC8 β (LWSAYKHRKTIEKSFNKGFYH) | 5 ± 0.2% |
| SVPTSVYTLGIKILWSARKFGKVIEKSFNKGFYH [β16, modified peptide derived from PLNC8 β] | 84 ± 8% |
| VFHAYSARGVRNNYKSAVGPADWVISAVRGFIHG [PlnF, full-length peptide F of two-peptide plantaricin EF, reference compound] | 24 ± 6% |
| SVPTSVYTLGIKILWSAYKHRKTIEKSFNKGFYH [PLNC8 β, full-length β peptide (34 residues) of two-peptide bacteriocin plantaricin NC8 αβ, reference compound] | 70 ± 12% |
| SVPTSVYTLGQKILRSARKFGKTIEKSFNKGFYH [β13, modified peptide derived from PLNC8 β] | 8 ± 11% |
| β7-13: truncated peptide derived from PLNC8 β (YTLGIKI) | 8 ± 4% |
| SVPTSVYLLGIKILWKARKFGKVIEKSFNKGFYH [β18, modified peptide derived from PLNC8 β] | 12 ± 1% |

| Substance | KUNV (% Reduction) |
| --- | --- |
| DLTTKLWSSWGYYLGKKARWNLKHPYVQF [PLNC8 α, full-length α peptide (29 amino acids) of two-peptide bacteriocin plantaricin NC8 αβ, reference compound] | ~ 35% and 35 ± 2% |
| α16-29: truncated peptide derived from PLNC8 α (KKARWNLKHPYVQF) | 2 ± 0% |
| α16-22: truncated peptide derived from PLNC8 α (KKARWNL) | 3 ± 6% |
| β1-20: truncated peptide derived from PLNC8 β (SVPTSVYTLGIKILWSAYKH) | 92 ± 4% |
| α9-15: truncated peptide derived from PLNC8 α (SWGYYLG) | 16 ± 7% |
| AYSLQMGATAIKQVKKLFKKWGW [PlnA, full-length plantaricin A, peptide pheromone of Lactobacillus plantarum C11, reference compound] | 27 ± 9% |
| α1-8: truncated peptide derived from PLNC8 α (DLTTKLWS) | 20 ± 18% |
| α23-29: truncated peptide derived from PLNC8 α (KHPYVQF) | 10 ± 4% |
| α9-22: truncated peptide derived from PLNC8 α (SWGYYLGKKARWNL) | 7 ± 7% |
| β14-20: truncated peptide derived from PLNC8 β (LWSAYKH) | 3 ± 4% |
| β4-17: truncated peptide derived from PLNC8 β (TSVYTLGIKILWSA) | 56 ± 32% |
| α9-29: truncated peptide derived from PLNC8 α (SWGYYLGKKARWNLKHPYVQF) | 10 ± 6% |
| SVPTSVYLLGIKILWSARKFGKVIEKSFNKGFYH [β17, modified peptide derived from PLNC8 β] | 14 ± 12% |
| β21-34: truncated peptide derived from PLNC8 β (RKTIEKSFNKGFYH) | 0 ± 0% |
| β1-13: truncated peptide derived from PLNC8 β (SVPTSVYTLGIKI) | 5 ± 7% |
| β7-20: truncated peptide derived from PLNC8 β (YTLGIKILWSAYKH) | 65 ± 20% |
| RRSRKNGIGYAIGYAFGAVERAVLGGSRDYNK [PlnK, full-length peptide K of two-peptide plantaricin JK, reference compound] | 18 ± 9% |

same assay, conditions: 10 µM peptide, KUNV 1 × 10^5 PFU exposed in DMEM for 1 h at room temperature, then Vero cells 1 h, overlay, 3 days, mean with SD of three independent experiments, listed as PLNC8 α1-15

| Substance | KUNV (% Reduction) |
| --- | --- |
| α1-15: truncated peptide derived from PLNC8 α (DLTTKLWSSWGYYLG) | over 90% |

same assay, conditions: 10 µM peptide, KUNV 1 × 10^5 PFU exposed in DMEM for 1 h at room temperature, then Vero cells 1 h, overlay, 3 days, mean with SD of three independent experiments, listed as PLNC8 β1-20

| Substance | KUNV (% Reduction) |
| --- | --- |
| β1-20: truncated peptide derived from PLNC8 β (SVPTSVYTLGIKILWSAYKH) | over 90% |

From publication PMC11817140, “Characterization of Novel Plantaricin-Derived Antiviral Peptides Against Flaviviruses” (International Journal of Molecular Sciences, 2025)
